The numbers were not newly measured in US20230285554A1, “COMBINED MEDICATION FOR TREATING SOFT TISSUE SARCOMA” (CHIA TAI TIANQING PHARMACEUTICAL GROUP CO., LTD., priority 2020, published 2023), which cites them from elsewhere.

The subject of this data set is STS. The following applies: first-line chemotherapy.

Regarding `O=P1(NCCCl)OCCCN1CCCl` (centres unmarked) [ifosfamide], the efficacy in words result is “best efficacy”.

For `COc1cccc2c1C(=O)c1c(O)c3c(c(O)c1C2=O)C[C@@](O)(C(=O)CO)C[C@@H]3O[C@H]1C[C@H](N)[C@H](O)[C@H](C)O1` [adriamycin], the efficacy in words result is reported as “best efficacy”.
